# Results published in PubChem BioAssay AID1996.
# Conditions: buffer; pH 7.4; 200.0 µM
row,Structure (SMILES),solubility kinetic [µg/mL]
1,Oc1cccc(N2Cc3ccccc3C2)c1,13
2,Cc1c(C(=O)N2CCCC2)oc2ccc(Br)cc12,25.1
3,CC(C)(C)N(Cc1cc2ccccc2[nH]c1=O)C(=O)c1cccc([N+](=O)[O-])c1,1.4
4,N#Cc1c(-c2ccccc2)cc(-c2ccccc2)nc1SCCC(=O)O,> 54.1
5,O=C(C1CCC1)N1CCN(c2ccc(Cl)cc2)CC1,36.4
6,CCNc1nc2c(c(=O)[nH]c(=O)n2C)n1CCCc1ccccc1,20.8
7,CC(C)CCN(CCC(C)C)C(=O)Cc1c(O)c2ccccc2[nH]c1=O,2.7
8,O=C(OCc1nc(-c2ccccc2Cl)no1)c1ccco1,19
9,Cn1cc(C(C[N+](=O)[O-])c2ccccc2)c2ccccc21 (stereo not given),2.6
10,CC(C)CNC(=S)N1CCC(Cc2ccccc2)CC1,9.3
11,Cc1ccc(C#N)c(SCc2ccccc2F)n1,< 0.3
12,O=C(NCCCN1CCCC1=O)Nc1ccccc1Cl,> 44.4
13,Cc1ccc(SCC(=O)Nc2ccc(N3CCOCC3)cc2)cc1C,12.3
14,O=C(CCN1C(=O)C2CC=CCC2C1=O)Nc1ccccc1Cl (stereo not given),> 49.9
15,CC(C)(C)NC(=O)c1ccc2c(c1)C(=O)N(Cc1ccco1)C2=O,46
16,CN(C(=O)C(C)(C)C)C1c2c(ccc3ccccc23)OCC1CO (stereo not given),6.6
17,CCN(CC)C(=O)CN1C(=O)c2cccc3cccc1c23,> 42.4
18,FC(F)(F)c1ccc(-c2csc(-c3ccno3)n2)cc1,< 0.3
19,Cc1ccccc1C(=O)Nc1cccc(C(=O)Nc2ccccc2C(=O)O)c1,> 56.2
20,O=c1c2[nH]c3ccc(F)cc3c2ncn1CCC1=CCCCC1,< 0.2

row,Structure (SMILES),solubility kinetic [µg/mL]
1,COc1ccc(C(=O)OCC(=O)c2ccc(CNC(C)=O)s2)cc1,> 52.1
2,COc1ccc(Nc2nc(-c3cccnc3)cs2)c(OC)c1,26.3
3,CCCc1nnc(NC(=O)CCC(=O)N2CCCCC2)s1,> 46.6
4,O=C(/C=C/c1ccco1)NCc1ccc2c(c1)OCO2,> 40.7
5,Cc1csc(SCC(=O)Nc2nccs2)n1,> 40.7
6,CNC(=S)N1CCn2cccc2C1c1cccnc1 (stereo not given),40.8
7,Cc1c(NS(=O)(=O)c2cccc(C(=O)N3CCC(C)CC3)c2)c(=O)n(-c2ccccc2)n1C,> 70.3
8,CCNC(=O)COc1ccc(OCc2ccccc2)cc1,29.1
9,Cc1sc(NC(=O)/C=C/c2ccco2)c(C(=O)O)c1C,40.9
10,COc1ccc(NC(=O)CCCc2ccc(OC)c(C)c2)cc1,2.1
11,CCCCCCOC(=O)Cc1c(C)nc(N)[nH]c1=O,> 40.1
12,CCN1C(=O)Cc2cc(S(=O)(=O)NCCc3ccccc3)ccc21,32.9
13,CCCCNC(=S)Nc1ccc(F)cc1,30.1
14,CC(=O)Nc1ccc(Oc2cncc(Cl)c2)nc1,> 39.6
15,CC(=O)c1cc(C)ccc1OC(=O)CN1C(=O)c2ccccc2C1=O,24.6
16,Cn1c(N)nc2nc(CCc3ccccc3)c(=O)[nH]c2c1=O,9.9
17,CCOC(=O)C1CCCN(CC(O)COCc2ccccc2OC)C1 (stereo not given),> 52.7
18,CCOC(=O)N1CCN(C(=O)Nc2ccccc2)CC1,> 41.6
19,O=C1NC(=O)C2(CCCc3ccccc32)N1 (stereo not given),30.6
20,COc1ccc(CC(=S)NCCc2ccccc2)cc1,13

row,Structure (SMILES),solubility kinetic [µg/mL]
1,CCOC(=O)Cc1csc(NC(=O)Cc2ccc(Cl)cc2)n1,5.5
2,Cc1cc(C)n2nc(SCC(=O)N3CCCC(C)C3)nc2n1 (stereo not given),> 47.9
3,COC(=O)CC(c1ccc(C#N)cc1)n1c(C)ccc1C (stereo not given),> 42.4
4,Cc1ccc(F)cc1NC(=O)N1CCN(C2c3ccccc3-c3ccccc32)CC1,4.9
5,Cc1cc(C)c2sc(N(CCN(C)C)C(=O)c3ccc4ccccc4c3)nc2c1.Cl,6.7
6,O=C(O)c1cccc(Cl)n1,> 23.6
7,CC(C)(C)C(=O)O/N=C1\CCS(=O)(=O)c2sccc21,36.5
8,O=C(NCCOc1ccccc1)c1ccccc1[N+](=O)[O-],> 42.9
9,CC(=O)Nc1ccc(S(=O)(=O)N[C@@H](C)C(=O)OCC(=O)c2ccc[nH]2)cc1,42.2
10,N/C(=N\OC(=O)Cc1ccc(Cl)cc1)c1ccncc1,27.1
11,CCc1ccc(-n2c([O-])c(C(C)=O)c(=O)[nH]c2=O)cc1.C[NH+](C)C,38.5
12,O=[N+]([O-])c1cc(C(F)(F)F)ccc1NC1CCN(Cc2ccccc2)C1 (stereo not given),1.7
13,Cc1ccccc1CC(=O)NCCN1CCOCC1,> 39.4
14,COCC(=O)N1CCCC(CNS(=O)(=O)c2ccc(OC)cc2)C1 (stereo not given),> 53.5
15,COc1ccccc1OCc1nc(-c2cccc([N+](=O)[O-])c2)no1,0.9
16,CC12CS(=O)(=O)CC1SC(=S)N2Cc1ccccc1 (stereo not given),44.2
17,Cc1nnc(NC(=O)C2CC(=O)N(Cc3ccccc3)C2)s1 (stereo not given),> 47.5
18,COc1ccc(Cl)cc1NC(=O)NCc1cccnc1,> 43.8
19,CC(OC(=O)c1c(F)cccc1F)C(=O)NCCC1=CCCCC1 (stereo not given),> 50.6
20,Cc1nc(Cl)c(C(=O)NCCc2ccccc2)c(C)c1[N+](=O)[O-],3.5
